From US20240270809A1, “ORAL GLP RECEPTOR AGONISTS” (priority 2020, published 2024)
Positions of bridges follow the written chain, without caps; N, C: chain ends. Non-standard residues stand in square brackets, D forms with d. Residues, ends and D or L forms follow the SMILES beside them. *: point of attachment. Malonyl(2,2-Me2,histaminyl) = CC(C)(C(=O)NCCc1cnc[nH]1)C(=O)*; Ala(1H-tetrazol-5-yl) = N[C@@H](Cc1nnn[nH]1)C(=O)O; αMePhe(2-F) = C[C@](N)(Cc1ccccc1F)C(=O)O; αMeL = CC(C)C[C@](C)(N)C(=O)O; Nle = CCCC[C@H](N)C(=O)O; Aib = CC(C)(N)C(=O)O

Experiments:
Type in all cases: cell-based
mouse GLP2 receptor = biological target: T1, mouse GLP2 receptor (Mus musculus, UniProt Q5IXF8); assay: cAMP accumulation assay, functional agonism of mouse GLP2 receptor; conditions: HEK cells transiently transfected with mouse GLP2 receptor, HTRF cAMP; for Emax: HEK293, read-out: Mouse GLP-2R agonist cAMP Emax; for EC50: read-out: Mouse GLP-2R agonist cAMP pEC50 (converted)
T1 construct: expressed in transfected cells; host or cells: HEK cells, transient transfection with GeneJuice
T1 sequence (Q5IXF8 1-512): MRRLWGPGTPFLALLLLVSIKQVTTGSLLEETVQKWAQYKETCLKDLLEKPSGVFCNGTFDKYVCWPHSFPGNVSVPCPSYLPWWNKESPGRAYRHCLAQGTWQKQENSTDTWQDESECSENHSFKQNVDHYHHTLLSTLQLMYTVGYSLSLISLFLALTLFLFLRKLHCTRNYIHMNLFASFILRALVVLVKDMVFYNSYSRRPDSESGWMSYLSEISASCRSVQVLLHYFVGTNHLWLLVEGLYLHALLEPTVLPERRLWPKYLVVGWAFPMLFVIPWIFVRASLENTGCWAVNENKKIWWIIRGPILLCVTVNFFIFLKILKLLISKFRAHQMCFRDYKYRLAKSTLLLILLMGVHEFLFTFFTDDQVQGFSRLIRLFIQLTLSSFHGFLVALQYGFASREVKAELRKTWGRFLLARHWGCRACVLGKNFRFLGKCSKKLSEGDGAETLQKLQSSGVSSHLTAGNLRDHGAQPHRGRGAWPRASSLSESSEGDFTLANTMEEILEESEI
Method: CAMP production upon agonist stimulation of mouse GLP2 or GLP1 receptors was assessed utilizing HiRange cAMP kit (Cisbio). In brief, HEK cells were transiently transfected for 24 hours with cDNA using GeneJuice Transfection reagent (EMD Millipore) and frozen at −80° C. for later use in the assay. On the day, various concentrations of compounds were dispensed using ECHO-555 (LabCyte) to a total volume of 100 nl into a low volume 384-well Proxi plate (Perkin Elmer) followed by addition of 10 μl of cell suspension delivering 8000 cells per well. Cells were prepared in the assay buffer (HBSS (Lonza) supplemented with 0.5 mM IBMX (Tocris)). After 45 min incubation at 37° C., the reaction was stopped by addition of the HTRF detection reagents in the lysis buffer provided in the kit. Following 1-hour incubation at RT, plates were read on Pherastar FS (BMG Labtech, Inc.) using standard HTRF settings. Dotmatics Studies software was used for calculation of pEC50 values by fitting data to a four-parameter concentration response curve.

human GLP2 receptor = biological target: T2, human GLP2 receptor (Homo sapiens, UniProt O95838); assay: cAMP accumulation assay, functional agonism of human GLP2 receptor; conditions: HEK cells infected with human GLP2 receptor BacMam virus, HTRF cAMP; for Emax: HEK293, read-out: Human GLP-2R agonist cAMP Emax; for EC50: read-out: Human GLP-2R agonist cAMP pEC50 (converted)
T2 construct: expressed in transfected cells; host or cells: HEK cells, BacMam virus transduction
T2 sequence (O95838 1-553): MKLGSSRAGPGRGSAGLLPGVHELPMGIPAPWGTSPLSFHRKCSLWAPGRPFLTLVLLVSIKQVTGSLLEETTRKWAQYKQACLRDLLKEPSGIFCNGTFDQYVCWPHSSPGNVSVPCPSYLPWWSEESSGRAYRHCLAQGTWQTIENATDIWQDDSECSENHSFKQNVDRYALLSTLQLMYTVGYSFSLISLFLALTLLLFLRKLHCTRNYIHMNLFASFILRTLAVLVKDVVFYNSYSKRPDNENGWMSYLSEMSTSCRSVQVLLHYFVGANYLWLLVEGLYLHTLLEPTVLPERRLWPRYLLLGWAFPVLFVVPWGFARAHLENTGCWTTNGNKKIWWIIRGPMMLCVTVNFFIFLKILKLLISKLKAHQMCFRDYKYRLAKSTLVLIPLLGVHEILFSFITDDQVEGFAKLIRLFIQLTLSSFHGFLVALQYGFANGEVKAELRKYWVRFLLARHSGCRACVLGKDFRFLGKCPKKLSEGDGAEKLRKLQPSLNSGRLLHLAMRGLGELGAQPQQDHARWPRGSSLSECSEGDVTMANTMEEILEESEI
Outline: (§1)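 Steps: infect HEK cells with human GLP1 or GLP2 receptor BacMam for 24 hours; freeze; resuspend in HBSS with 0.5 mM IBMX; incubate with agonist 45 min at 37° C; lyse with HTRF detection reagents and read cAMP.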

human GLP1 receptor = biological target: T3, human GLP1 receptor (Homo sapiens, UniProt P43220); assay: cAMP accumulation assay, functional agonism of human GLP1 receptor; conditions: HEK cells infected with human GLP1 receptor BacMam virus, HTRF cAMP; for Emax: HEK293, read-out: Human GLP-1R agonist cAMP Emax; for EC50: read-out: Human GLP-1R agonist cAMP pEC50 (converted)
T3 construct: expressed in transfected cells; host or cells: HEK cells, BacMam virus transduction
Outline: as §1

T3 sequence (P43220 24-463): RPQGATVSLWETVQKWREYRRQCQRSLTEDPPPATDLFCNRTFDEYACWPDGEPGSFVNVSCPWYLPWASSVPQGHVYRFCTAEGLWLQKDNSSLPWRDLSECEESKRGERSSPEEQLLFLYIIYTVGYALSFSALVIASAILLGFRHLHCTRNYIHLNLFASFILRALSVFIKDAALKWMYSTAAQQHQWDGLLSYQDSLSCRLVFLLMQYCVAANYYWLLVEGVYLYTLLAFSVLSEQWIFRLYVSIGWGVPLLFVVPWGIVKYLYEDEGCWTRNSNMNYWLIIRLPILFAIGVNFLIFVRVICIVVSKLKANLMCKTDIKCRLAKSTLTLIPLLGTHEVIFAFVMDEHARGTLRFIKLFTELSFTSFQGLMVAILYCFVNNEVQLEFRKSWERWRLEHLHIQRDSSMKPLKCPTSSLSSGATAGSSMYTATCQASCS

Structure (SMILES) | Emax (mouse GLP2 receptor) | EC50 (mouse GLP2 receptor) | Emax (human GLP2 receptor) | EC50 (human GLP2 receptor) | Emax (human GLP1 receptor) | EC50 (human GLP1 receptor)
CCCC[C@@H]1NC(=O)[C@H](CCC(=O)O)NC(=O)[C@@H](NC(=O)[C@H](CO)NC(=O)[C@](C)(Cc2ccccc2F)NC(=O)[C@H](CO)NC(=O)[C@@H](C)NC(=O)[C@H](CC(=O)O)NC(=O)C(C)(C)C(=O)NCCc2c[nH]cn2)CCCCNC(=O)C[C@@H](C(=O)N[C@@](C)(CC(C)C)C(=O)N[C@@H](CC(C)C)C(=O)N[C@@H](CC(=O)O)C(=O)N[C@H]2CCC(=O)NCCCC[C@@H](C(=O)N[C@@H](CC(=O)O)C(=O)N[C@@H](Cc3ccccc3)C(=O)N[C@H](C(=O)N[C@H]3CCC(=O)NCCCC[C@@H](C(=O)N[C@H]4CCC(=O)NCCCC[C@@H](C(N)=O)NC(=O)[C@H]([C@@H](C)O)NC(=O)[C@H]([C@@H](C)CC)NC(=O)[C@H](CCCCN)NC4=O)NC(=O)[C@H]([C@@H](C)CC)NC(=O)[C@H](CC(C)C)NC(=O)[C@H](Cc4c[nH]c5ccccc45)NC3=O)[C@@H](C)CC)NC(=O)[C@H](C)NC(=O)[C@H](C)NC(=O)[C@H](CCCCN)NC2=O)NC(=O)[C@@H](Cc2ccccc2)NC1=O [Example 50] ({Malonyl(2,2-Me2,histaminyl)}-D[dA]S[αMePhe(2-F)]SKE[Nle][dF]D[αMeL]LDEKAAKDFIEWLIKEKITK-NH2; lactam 6-10, 14-18, 22-26, 27-31 (inferred); C-terminus assumed) | 81% | 7.94 nM | 102% | 0.0251 nM | 98.3% | 0.1 nM
CCCC[C@@H]1NC(=O)[C@H](CCC(=O)O)NC(=O)[C@@H](NC(=O)[C@H](CO)NC(=O)[C@H](Cc2ccccc2)NC(=O)[C@H](CO)NC(=O)CNC(=O)[C@H](Cc2nn[nH]n2)NC(=O)C(C)(C)C(=O)NCCc2c[nH]cn2)CCCCNC(=O)C[C@@H](C(=O)N[C@H](C(=O)N[C@@H](CC(C)C)C(=O)N[C@@H](CC(=O)O)C(=O)N[C@H]2CCC(=O)NCCCC[C@@H](C(=O)N[C@@H](CC(=O)O)C(=O)N[C@@H](Cc3ccccc3)C(=O)N[C@H](C(=O)N[C@@H](CC(N)=O)C(=O)N[C@@H](Cc3c[nH]c4ccccc34)C(=O)N[C@@H](CC(C)C)C(=O)N[C@H](C(=O)N[C@@H](CCC(N)=O)C(=O)N[C@H](C(=O)N[C@@H](CCCCN)C(=O)N[C@H](C(=O)N[C@H](C(=O)N[C@@H](Cc3ccccc3)C(N)=O)[C@@H](C)O)[C@@H](C)CC)[C@@H](C)O)[C@@H](C)CC)[C@@H](C)CC)NC(=O)[C@H](C)NC(=O)[C@H](C)NC(=O)[C@H](CCCCN)NC2=O)[C@@H](C)CC)NC(=O)[C@@H](Cc2ccccc2)NC1=O [Example 115] ({Malonyl(2,2-Me2,histaminyl)}-[Ala(1H-tetrazol-5-yl)]GSFSKE[Nle][dF]DILDEKAAKDFINWLIQTKITF-NH2; lactam 6-10, 14-18 (inferred); C-terminus assumed) |  |  | 104% | 0.02 nM | 92% | 0.501 nM

Now from value to compound:

Emax (mouse GLP2 receptor) | EC50 (mouse GLP2 receptor) | Emax (human GLP2 receptor) | EC50 (human GLP2 receptor) | Emax (human GLP1 receptor) | EC50 (human GLP1 receptor) | Structure (SMILES)
86.4% | 3.16 nM | 103% | 0.0158 nM | 97.1% | 0.158 nM | CCCC[C@@H]1NC(=O)[C@H](CCC(=O)O)NC(=O)[C@@H](NC(=O)[C@H](CO)NC(=O)[C@](C)(Cc2ccccc2F)NC(=O)[C@H](CO)NC(=O)[C@@H](C)NC(=O)[C@H](CC(=O)O)NC(=O)C(C)(C)C(=O)NCCc2c[nH]cn2)CCCCNC(=O)C[C@@H](C(=O)N[C@H](C(=O)N[C@@H](CC(C)C)C(=O)N[C@@H](CC(=O)O)C(=O)N[C@H]2CCC(=O)NCCCC[C@@H](C(=O)N[C@@H](CC(=O)O)C(=O)N[C@@H](Cc3ccccc3)C(=O)N[C@H](C(=O)N[C@@H](CC(N)=O)C(=O)N[C@@H](Cc3c[nH]c4ccccc34)C(=O)N[C@@H](CC(C)C)C(=O)N[C@H](C(=O)N[C@@H](CCC(N)=O)C(=O)N[C@H]3CCC(=O)NCCCC[C@@H](C(N)=O)NC(=O)[C@H]([C@@H](C)O)NC(=O)[C@H]([C@@H](C)CC)NC(=O)[C@H](CCCCN)NC3=O)[C@@H](C)CC)[C@@H](C)CC)NC(=O)[C@H](C)NC(=O)[C@H](C)NC(=O)[C@H](CCCCN)NC2=O)[C@@H](C)CC)NC(=O)[C@@H](Cc2ccccc2)NC1=O [Example 26] ({Malonyl(2,2-Me2,histaminyl)}-D[dA]S[αMePhe(2-F)]SKE[Nle][dF]DILDEKAAKDFINWLIQEKITK-NH2; lactam 6-10, 14-18, 27-31 (inferred); C-terminus assumed)
 |  | 104% | 0.501 nM | 92.1% | 3.98 nM | CCCC[C@@H]1NC(=O)[C@H](CCC(=O)O)NC(=O)[C@@H](NC(=O)[C@H](CO)NC(=O)[C@H](Cc2ccccc2)NC(=O)[C@H](CO)NC(=O)CNC(=O)[C@H](Cc2nn[nH]n2)NC(=O)C(C)(C)C(=O)NCCc2c[nH]cn2)CCCCNC(=O)C[C@@H](C(=O)N[C@H](C(=O)N[C@@H](CC(C)C)C(=O)N[C@@H](CC(=O)O)C(=O)N[C@@H](CC(C)C)C(=O)N[C@@H](CCCCN)C(=O)N[C@@H](C)C(=O)N[C@@H](C)C(=O)NC(C)(C)C(=O)N[C@@H](CC(=O)O)C(=O)N[C@@H](Cc2ccccc2)C(=O)N[C@H](C(=O)N[C@@H](CC(N)=O)C(=O)N[C@@H](Cc2c[nH]c3ccccc23)C(=O)N[C@@H](CC(C)C)C(=O)N[C@H](C(=O)N[C@@H](CCC(N)=O)C(=O)N[C@H](C(=O)N[C@H]2CCC(=O)NCCCC[C@@H](C(N)=O)NC(=O)[C@H]([C@@H](C)O)NC(=O)[C@H]([C@@H](C)CC)NC2=O)[C@@H](C)O)[C@@H](C)CC)[C@@H](C)CC)[C@@H](C)CC)NC(=O)[C@@H](Cc2ccccc2)NC1=O [Example 108] ({Malonyl(2,2-Me2,histaminyl)}-[Ala(1H-tetrazol-5-yl)]GSFSKE[Nle][dF]DILDLKAA[Aib]DFINWLIQTEITK-NH2; lactam 6-10, 28-31; C-terminus assumed)
 |  | 102% | 0.02 nM | 89.1% | 3.16 nM | CCCC[C@@H]1NC(=O)[C@H](CCC(=O)O)NC(=O)[C@@H](NC(=O)[C@H](CO)NC(=O)[C@H](Cc2ccccc2)NC(=O)[C@H](CO)NC(=O)CNC(=O)[C@H](Cc2nn[nH]n2)NC(=O)C(C)(C)C(=O)NCCc2c[nH]cn2)CCCCNC(=O)C[C@@H](C(=O)N[C@H](C(=O)N[C@@H](CC(C)C)C(=O)N[C@@H](CC(=O)O)C(=O)N[C@H]2CC(=O)NCCCC[C@@H](C(=O)N[C@@H](CC(=O)O)C(=O)N[C@@H](Cc3ccccc3)C(=O)N[C@H](C(=O)N[C@@H](CC(N)=O)C(=O)N[C@@H](Cc3c[nH]c4ccccc34)C(=O)N[C@@H](CC(C)C)C(=O)N[C@H](C(=O)N[C@@H](CCC(N)=O)C(=O)N[C@H](C(=O)N[C@@H](CCCCN)C(=O)N[C@H](C(=O)N[C@H](C(=O)N[C@@H](Cc3ccccc3)C(N)=O)[C@@H](C)O)[C@@H](C)CC)[C@@H](C)O)[C@@H](C)CC)[C@@H](C)CC)NC(=O)[C@H](C)NC(=O)[C@H](C)NC(=O)[C@H](CCCCN)NC2=O)[C@@H](C)CC)NC(=O)[C@@H](Cc2ccccc2)NC1=O [Example 114] ({Malonyl(2,2-Me2,histaminyl)}-[Ala(1H-tetrazol-5-yl)]GSFSKE[Nle][dF]DILDDKAAKDFINWLIQTKITF-NH2; lactam 6-10, 14-18 (inferred); C-terminus assumed)
